As usually defined, the IC50 is the concentration that inhibits the measured activity by half.

The record followed here is patent publication US20100292214A1, “Compounds with Antiparasitic Activity, Applications thereof to the Treatment of Infectious Diseases Caused by Apicomplexans” (commissariat a l'Energie Atomique, priority 2007, published 2010).

Counter-ions that a name gives are not always drawn. Like-named read-outs stand apart in the source and are kept apart here.

The subject of assay [1] is asynchronous 3D7 chloroquine-sensitive P. falciparum infected red blood cells. The assay can be described thus: Labeled hypoxanthine incorporation assay (in vitro anti-malarial activity). The class given is cell-based. The conditions noted are these: read-out: IC50 assessed on Plasmodium Falciparum.
Assay [2] concerns Toxoplasma gondii RH-β1 strain. The assay is described as follows: microbe, parasite or virus in culture. It is filed as cell-based. Conditions: read-out: IC50 assessed on Toxoplama Gondii.
[3] abbreviates: Plasmodium falciparum, 3D7, Erythrocyte, 3D7 chloroquine-sensitive strain, infected RBC, 48 h contact, [3H]-hypoxanthine incorporation, two independent experiments in duplicates.
The mark [4] stands for this setting: Plasmodium falciparum, 3D7, Erythrocyte.

On to `C[C@@H](COC(=O)N1CCC(N(C(=S)Nc2ccccc2)c2ccccc2)CC1)N(Cc1ccccc1)Cc1ccccc1` [Compound 165, (S)-2-(dibenzylamino)propyl 4-(1,3-diphenylthioureido)piperidine-1-carboxylate], for which the IC50 in assay [1] (setting [3]) was found to be 1.25 µM; in assay [2] (Toxoplasma gondii) it was 3 µM.

For `C[C@@H](COC(=O)N1CCCC(n2c(=O)[nH]c3ccccc32)CC1)N(Cc1ccccc1)Cc1ccccc1` (stereo partly drawn) [Compound 13, (S)-2-(dibenzylamino)propyl 4-(1,2-dihydro-2-oxobenzo[d]imidazol-3-yl)azepane-1-carboxylate], the values for the IC50 in assay [1] (setting [3]) and in assay [2] (Toxoplasma gondii) were 10.7 µM and 5 µM, respectively.

Turning to `COc1ccc(CN(CCOC(=O)N2CCC(n3c(=O)[nH]c4ccccc43)CC2)Cc2ccccc2)cc1` [Compound 121, 2-(benzyl(4-methoxybenzyl)amino)ethyl 4-(2-oxo-2,3-dihydro-1H-benzo[d]imidazol-1-yl)piperidine-1-carboxylate hydrochloride], the IC50 in assay [1] (setting [3]) came out at 3.49 µM; in assay [2] (Toxoplasma gondii), 5 µM.

Take `O=C(OC[C@H](Cc1ccccc1)N(Cc1ccccc1)Cc1ccccc1)N1CCC(Nc2ccccc2)CC1` [Compound 152, (S)-2-(dibenzylamino)-3-phenylpropyl 4-(phenylamino)piperidine-1-carboxylate]: the values for the IC50 in assay [1] (setting [4]) and in assay [2] (Toxoplasma gondii) were 0.922 µM and 3.8 µM, respectively.

Take `O=C(OCCC1CCN(Cc2ccccc2)CC1)N1CCC(n2c(=O)[nH]c3ccccc32)CC1` [Compound 40, 2-(1-benzylpiperidin-4-yl)ethyl 4-(1,2-dihydro-2-oxobenzo[d]imidazol-3-yl)piperidine-1-carboxylate]: the IC50 in assay [1] (setting [3]) was determined as 8.16 µM; in assay [2] (Toxoplasma gondii), 0.98 µM.

Regarding `O=C(OC[C@H](Cc1ccccc1)N(Cc1ccccc1)Cc1ccccc1)N1CCC(n2c(=O)n(Cc3ccccc3)c3ccccc32)CC1` [Compound 37, (S)-2-(dibenzylamino)-3-phenylpropyl 4-(1-benzyl-1,2-dihydro-2-oxobenzo[d]imidazol-3-yl)piperidine-1-carboxylate, hydrochloride salt], the IC50 in assay [1] (3D7 chloroquine-sensitive strain, infected RBC, 48 h contact, [3H]-hypoxanthine incorporation, two independent experiments in duplicates, hydrochloride salt) worked out at 0.873 µM; in assay [2] (hydrochloride salt), 1.8 µM.

Turning to `C[C@@H](COC(=O)N1CCCC(n2c(=O)[nH]c3ccccc32)C1)N(Cc1ccccc1)Cc1ccccc1` (stereo partly drawn) [Compound 16, (S)-2-(dibenzylamino)propyl 3-(1,2-dihydro-2-oxobenzo[d]imidazol-3-yl)piperidine-1-carboxylate], the results for the IC50 in assay [1] (setting [3]) and in assay [2] (Toxoplasma gondii) were 2.81 µM and 2.35 µM, respectively.

`O=C(OCCN(Cc1ccccc1)Cc1ccccc1OCc1ccccc1)N1CCC(n2c(=O)[nH]c3ccccc32)CC1` [Compound 99, 2-(benzyl(2-(benzyloxy)benzyl)amino)ethyl 4-(2-oxo-2,3-dihydro-1H-benzo[d]imidazol-1-yl)piperidine-1-carboxylate]: the results for the IC50 in assay [1] (setting [3]) and in assay [2] (Toxoplasma gondii) were 0.842 µM and 3.5 µM, respectively.

Turning to `C[C@@H](COC(=O)N1CCC(n2c(=O)[nH]c3ccccc32)CC1)N(Cc1ccccc1)Cc1cc2ccccc2c2ccccc12` [Compound 137, (S)-2-(benzyl(phenanthren-9-ylmethyl)amino)propyl 4-(2-oxo-2,3-dihydro-1H-benzo[d]imidazol-1-yl)piperidine-1-carboxylate hydrochloride], the IC50 is 1.61 µM in assay [1] (setting [3]) and 0.7 µM in assay [2] (Toxoplasma gondii).

Consider `C[C@@H](CNC(=S)N1CCC(n2c(=O)[nH]c3ccccc32)CC1)N(Cc1ccccc1)Cc1ccccc1` [Compound 91, N-((S)-2-(dibenzylamino)propyl)-4-(1,2-dihydro-2-oxobenzo[d]imidazol-3-yl)piperidine-1-carbothioamide], for which the IC50 in assay [1] (setting [3]) was found to be 2.71 µM; in assay [2] (Toxoplasma gondii) it was 7.5 µM.

For the compound `C[C@@H](COC(=O)N1CCC(n2c(=O)[nH]c3ccccc32)CC1)N(Cc1ccccc1)Cc1cccc(Cl)c1` [Compound 128, (S)-2-(benzyl(3-chlorobenzyl)amino)propyl 4-(2-oxo-2,3-dihydro-1H-benzo[d]imidazol-1-yl)piperidine-1-carboxylate hydrochloride], the results for the IC50 in assay [1] (setting [3]) and in assay [2] (Toxoplasma gondii) were 2.06 µM and 5 µM, respectively.

Turning to `COc1cccc(CN(Cc2ccccc2)[C@@H](C)COC(=O)N2CCC(n3c(=O)[nH]c4ccccc43)CC2)c1` [Compound 126, (S)-2-(benzyl(3-methoxybenzyl)amino)propyl 4-(2-oxo-2,3-dihydro-1H-benzo[d]imidazol-1-yl)piperidine-1-carboxylate hydrochloride], the IC50 came out at 3.98 µM in assay [1] (setting [3]) and 3.75 µM in assay [2] (Toxoplasma gondii).

On to `O=C(OC[C@H](Cc1ccccc1)N(Cc1ccccc1)Cc1ccccc1)N1CCC(n2c(=O)[nH]c3ccccc32)CC1` [Compound 26, (S)-2-(dibenzylamino)-3-phenylpropyl 4-(1,2-dihydro-2-oxobenzo[d]imidazol-3-yl)piperidine-1-carboxylate], for which the results for the IC50 in assay [1] (setting [3]) and in assay [2] (Toxoplasma gondii) were 1.4 µM and 4.8 µM, respectively.

For `C[C@@H](COC(=O)N1CCC(n2c(=S)[nH]c3ccccc32)CC1)N(Cc1ccccc1)Cc1ccccc1` [Compound 97, (S)-2-(dibenzylamino)propyl 4-(1,2-dihydro-2-thioxobenzo[d]imidazol-3-yl)piperidine-1-carboxylate], the IC50 in assay [1] (setting [3]) worked out at 1.06 µM; in assay [2] (Toxoplasma gondii), 3.5 µM.

On to `C[C@@H](COC(=O)N1CCC(n2c(=O)n(S(=O)(=O)c3ccc(F)cc3)c3ccccc32)CC1)N(Cc1ccccc1)Cc1ccccc1` [Compound 56, (S)-2-(dibenzylamino)propyl 4-(3-(4-fluorophenylsulfonyl)-2-oxo-2,3-dihydro-1H-benzo[d]imidazol-1-yl)piperidine-1-carboxylate], for which the figures for the IC50 in assay [1] (setting [3]) and in assay [2] (Toxoplasma gondii) were 0.33 µM and 1.5 µM, respectively.

With `C[C@@H](COC(=O)N1CCC(N(c2ccccc2)S(=O)(=O)c2ccc(F)cc2)CC1)N(Cc1ccccc1)Cc1ccccc1` [Compound 155, (S)-2-(dibenzylamino)propyl 4-(N-phenyl-4-fluorophenylsulfonamido)piperidine-1-carboxylate], the results for the IC50 in assay [1] (setting [3]) and in assay [2] (Toxoplasma gondii) were 0.617 µM and 0.8 µM, respectively.

Take `Cc1nc2ccccc2n1C1CCN(C(=O)OC[C@H](C)N(Cc2ccccc2)Cc2ccccc2)CC1` [Compound 15, (S)-2-(dibenzylamino)propyl 4-(2-methyl-1H-benzo[d]imidazol-1-yl)piperidine-1-carboxylate]: the figures for the IC50 in assay [1] (setting [3]) and in assay [2] (Toxoplasma gondii) were 2.42 µM and 3.41 µM, respectively.

On to `Cn1c(CN(CCOC(=O)N2CCC(n3c(=O)[nH]c4ccccc43)CC2)Cc2ccccc2)cc2ccccc21` [Compound 132, 2-(benzyl((1-methyl-1H-indol-2-yl)methyl)amino)ethyl 4-(2-oxo-2,3-dihydro-1H-benzo[d]imidazol-1-yl)piperidine-1-carboxylate hydrochloride], for which the IC50 in assay [1] (setting [3]) was 4.2 µM; in assay [2] (Toxoplasma gondii), 1.2 µM.

On to `C[C@@H](COC(=O)N1CCC(n2c(=O)n(CC3CCCCC3)c3ccccc32)CC1)N(Cc1ccccc1)Cc1ccccc1` [Compound 72, (S)-2-(dibenzylamino)propyl 4-(1-(cyclohexylmethyl)-1,2-dihydro-2-oxobenzo[d]imidazol-3-yl)piperidine-1-carboxylate], for which the half-maximal inhibitory concentration (IC50) in assay [1] (setting [3]) worked out at 1.03 µM; in assay [2] (Toxoplasma gondii), 1.57 µM.

On to `C[C@@H](COC(=O)N1CCC(Nc2ccccc2)CC1)N(Cc1ccccc1)Cc1ccccc1` [Compound 80, (S)-2-(dibenzylamino)propyl 4-(phenylamino)piperidine-1-carboxylate], for which the IC50 came out at 3.41 µM in assay [1] (setting [4]) and 9.5 µM in assay [2] (Toxoplasma gondii).

For the compound `CC(C)C[C@@H](COC(=O)N1CCC(n2c(=O)[nH]c3ccccc32)CC1)N(Cc1ccccc1)Cc1ccccc1` [Compound 108, (S)-2-(dibenzylamino)-4-methylpentyl 4-(1,2-dihydro-2-oxobenzo[d]imidazol-3-yl)piperidine-1-carboxylate], the figures for the IC50 in assay [1] (setting [3]) and in assay [2] (Toxoplasma gondii) were 2.61 µM and 3.75 µM, respectively.

In the case of `C[C@@H](COC(=O)N1CCC(Nc2nc3ccccc3[nH]2)CC1)N(Cc1ccccc1)Cc1ccccc1` [Compound 93, (S)-2-(Dibenzylamino)propyl 4-(1H-benzo[d]imidazol-2-ylamino)piperidine-1-carboxylate], the IC50 in assay [1] (setting [3]) came out at 0.18 µM; in assay [2] (Toxoplasma gondii), 0.98 µM.

`O=C(OCCN(Cc1ccccc1)Cc1ccc(Br)cc1)N1CCC(n2c(=O)[nH]c3ccccc32)CC1` [Compound 115, 2-(benzyl(4-bromobenzyl)amino)ethyl 4-(2-oxo-2,3-dihydro-1H-benzo[d]imidazol-1-yl)piperidine-1-carboxylate hydrochloride]: the IC50 amounted to 4.41 µM in assay [1] (setting [3]) and 3.2 µM in assay [2] (Toxoplasma gondii).

In the case of `O=C(OC[C@@H]1CCCN1Cc1ccccc1)N1CCC(n2c(=O)[nH]c3ccccc32)CC1` [Compound 42, ((S)-1-benzylpyrrolidin-2-yl)methyl 4-(1,2-dihydro-2-oxobenzo[d]imidazol-3-yl)piperidine-1-carboxylate], the IC50 in assay [1] (setting [3]) came to 18.8 µM; in assay [2] (Toxoplasma gondii), 5 µM.

`CC(=O)Nc1ccc(S(=O)(=O)n2c(=O)n(C3CCN(C(=O)OC[C@H](C)N(Cc4ccccc4)Cc4ccccc4)CC3)c3ccccc32)cc1` [Compound 63, (S)-2-(dibenzylamino)propyl 4-(2-oxo-3-(4-acetamidylphenylsulfonyl)-2,3-dihydro-1H-benzo[d]imidazol-1-yl)piperidine-1-carboxylate]: the results for the IC50 in assay [1] (setting [3]) and in assay [2] (Toxoplasma gondii) were 1.54 µM and 3 µM, respectively.

`C[C@@H](COC(=O)N1CCC(n2c(=O)[nH]c3ccccc32)CC1)N(Cc1ccccc1)Cc1cccc(OCc2ccccc2)c1` [Compound 136, (S)-2-(benzyl(3-(benzyloxy)benzyl)amino)propyl 4-(2-oxo-2,3-dihydro-1H-benzo[d]imidazol-1-yl)piperidine-1-carboxylate hydrochloride]: the IC50 in assay [1] (setting [3]) is 1.6 µM; in assay [2] (Toxoplasma gondii), 0.8 µM.

As for `O=c1[nH]c2ccccc2n1C1CCN(C(=S)OCCOCc2ccccc2)CC1` [Compound 47, O-2-(benzyloxy)ethyl 4-(1,2-dihydro-2-oxobenzo[d]imidazol-3-yl)piperidine-1-carbothioate], the figures for the IC50 in assay [1] (setting [3]) and in assay [2] (Toxoplasma gondii) were 23.2 µM and 1.13 µM, respectively.
